# Measurements reported in US9332764B2, “Aqueous composition for inactivating sporulated and/or non-sporulated coccidian parasites” (Ecolab USA Inc., priority 2007, dated 2016).
# “Also recorded” adds a separate entry of the source.
# Key:
# [1] = tested on: non-sporulated oocysts of Eimeria papillata; experiment: Incubation of fresh non-sporulated oocysts, then check for sporulation after one week at 25° C.; format: cell-based; details: incubation 60 min; for result (sporulation): room temperature, no surfactant
# Protocol: (§1) For the experiments 20 g female Balb/C-mice were used. […] The flotation medium was prepared containing 124.5 g NaCl and 435.8 g saccharide which was diluted with water and filled up to 1 litre. Fresh non-sporulated oocysts were prepared. Subsequently the Balb/C-mice were infected with 20,000 sporulated oocysts. From the fourth day after infection, fresh mouse excrement is collected and isolated by flotation. Residual flotation medium is removed by washing three times with clean water.
# (§2) A chlorine dioxide solution is prepared by mixing a solution containing sodium chlorite and an acidic solution. By reaction chlorine dioxide is produced. The solution comprises 120 ppm chorine dioxide. By further dilution, chlorine dioxide solutions of 40, 20, 10, 4, 1, and 0.5 ppm are produced which are immediately used for the experiments.
# Oocysts of Eimeria papillata were filtered from fresh mice excrements and incubated for 60 min with freshly produced chlorine dioxide solution at concentrations of 40, 20, 10, 4, 1, 0.5 ppm at room temperature. After 60 min incubation time the oocyst suspensions were washed with water and cultured for sporulation in 1 ml water. The probes were incubated for one week at 25° C. As control a non-treated, non-sporulated oocyst sample was used which was also incubated for one week at 25° C. After seven days it was checked if a sporulation occurred. (see table 1)
# In the same way experiments were carried out with the aqueous composition according to the invention comprising chlorine dioxide and as an anionic surfactant Dofax 2A1 (Dow Chemicals) which is a mixture of a disodium oxybis(dodecyl benzenesulfonate) and a dodecyl(sulfophenoxy)disodium salt of benzene sulfonic acid. The composition comprises between 0.5 to 25 ppm chlorine dioxide and 0.2 wt. % of the anionic surfactant. (see table 2)
# [2] = tested on: sporulated oocysts of Eimeria papillata; experiment: Infection of mice with treated sporulated oocysts, excretion of oocysts in excrements; format: in vivo, Eimeria papillata in Balb/C-mice; set-up: key to excretion 4 dpi / excretion 5 dpi / excretion 6 dpi / excretion 7 dpi: +++: massive excretion of oocysts; ++: excretion of many oocysts; +: excretion of few oocysts; −: no oocysts detectable; details: for excretion 4 dpi / excretion 5 dpi / excretion 6 dpi / excretion 7 dpi: 60 min; for excretion 4 dpi: 4 days after infection; for excretion 5 dpi: 5 days after infection; for excretion 6 dpi: 6 days after infection; for excretion 7 dpi: 7 days after infection
# Protocol: as §1
# Sporulated infectious oocysts were incubated at 25° C. for one week.
# as §2
# A further series of experiments was performed in order to evaluate the inactivation pattern of sporulated oocysts. […] After that the oocyst suspensions were washed with water for three times and 20,000 oocysts were orally administered to a mouse. Per concentration one mouse was used. In addition two mice were treated, each with 20,000 non-treated, sporulated oocysts for control purposes. From the fourth day after infection samples of the excrements of the mice were taken daily and the presence of oocysts of Eimeria papillata was examined. (see table 3) […]
# [3] = tested on: sporulated and/or non-sporulated Coccidian parasites; experiment: Inactivation of Coccidian parasites by chlorine dioxide solutions, general statements; details: chlorine dioxide alone, concentrations below 120 ppm
# Source text: Therefore the disadvantage of the method described in JP 2004-210726 is that high concentrations of chlorine dioxide have to be used in order to sufficiently inactivate the Coccidian parasites. The inventors of the present invention have performed experiments to lower the limit of the concentration of chlorine dioxide in a solution which is still effective, inactivating Coccidian parasites.
# In addition the inventors have also investigated whether combinations of chlorine dioxide with other surfactants like for example alkyl sulfonates, amine oxides, ethoxylated polyalcohols, quaternary ammonium compounds, lauryl hydroxy sulfane, and alkyl ether sulfates have an effect in combination with lower concentrations of chlorine dioxide.
# [4] = tested on: sporulated and/or non-sporulated Coccidian parasites; details: preferably around 800 ppm; cited from earlier work
# Eimeria oocysts = details: cited from earlier work
# [5] = oocysts treated with ClO2 4 ppm
# [6] = oocysts treated with ClO2 10 ppm
# [7] = oocysts treated with ClO2 20 ppm
# [8] = oocysts treated with ClO2 40 ppm
# [9] = oocysts treated with ClO2 120 ppm
# [10] = oocysts treated with ClO2 240 ppm
compound,measurement,setting,value
"[O][Cl+][O-] [chlorine dioxide solution, chlorine dioxide]",result (sporulation),[1]; ClO2 0.5 ppm,complete
same,result (sporulation),[1]; ClO2 1 ppm,complete
same,result (sporulation),[1]; ClO2 4 ppm,complete
same,result (sporulation),[1]; ClO2 10 ppm,complete
same,result (sporulation),[1]; ClO2 20 ppm,complete
same,result (sporulation),[1]; ClO2 40 ppm,partial
same,sporulation,"[1]; chlorine dioxide only, concentrations below 40 ppm",complete or partial sporulation
same,excretion of oocysts of Eimeria papillata in Balb/C-mice,"[2]; chlorine dioxide between 4 and 40 ppm, incubation 60 min",cannot be avoided
same,detectable oocysts,[2]; concentrations of 120 ppm and 240 ppm,no detectable oocysts
same,excretion 4 dpi,[2]; [5],++
same,excretion 5 dpi,[2]; [5],++
same,excretion 6 dpi,[2]; [5],++
same,excretion 7 dpi,[2]; [5],+
same,excretion 4 dpi,[2]; [6],++
same,excretion 5 dpi,[2]; [6],++
same,excretion 6 dpi,[2]; [6],++
same,excretion 7 dpi,[2]; [6],+
same,excretion 4 dpi,[2]; [7],++
same,excretion 5 dpi,[2]; [7],++
same,excretion 6 dpi,[2]; [7],+
same,excretion 7 dpi,[2]; [7],+
same,excretion 4 dpi,[2]; [8],+
same,excretion 5 dpi,[2]; [8],+
same,excretion 6 dpi,[2]; [8],+
same,excretion 7 dpi,[2]; [8],+
same,excretion 4 dpi,[2]; [9],−
same,excretion 5 dpi,[2]; [9],−
same,excretion 6 dpi,[2]; [9],−
same,excretion 7 dpi,[2]; [9],−
same,excretion 4 dpi,[2]; [10],−
same,excretion 5 dpi,[2]; [10],−
same,excretion 6 dpi,[2]; [10],−
same,excretion 7 dpi,[2]; [10],−
same,inactivation / eradication of coccoid organisms,[3],ineffective; also recorded: will not inactivate
same,chlorine dioxide concentration known to completely inactivate sporulated and/or non-sporulated Coccidian parasites,[4],above 200 ppm
O=S(=O)([O-])[O-].[Cu+2] [copper sulfate],effectiveness for eradication of coccoid oocysts,Eimeria oocysts,ineffective
C=O [formalin],effectiveness for eradication of coccoid oocysts,Eimeria oocysts,ineffective
O=CCCCC=O [glutaraldehyde],effectiveness for eradication of coccoid oocysts,Eimeria oocysts,ineffective
CC(=O)OO [peracetic acid],effectiveness for eradication of coccoid oocysts,Eimeria oocysts,ineffective
[K+].[K+].[O]=[Cr](=[O])([O-])[O][Cr](=[O])(=[O])[O-] [potassium dichromate],effectiveness for eradication of coccoid oocysts,Eimeria oocysts,ineffective
[K+].[OH-] [potassium hydroxide],effectiveness for eradication of coccoid oocysts,Eimeria oocysts,ineffective
[I-].[K+] [potassium iodide],effectiveness for eradication of coccoid oocysts,Eimeria oocysts,ineffective
OCl [sodium hypochlorite],effectiveness for eradication of coccoid oocysts,Eimeria oocysts,ineffective
O=S(=O)(O)O [sulfuric acid],effectiveness for eradication of coccoid oocysts,Eimeria oocysts,ineffective
benzalkonium chloride,effectiveness for eradication of coccoid oocysts,Eimeria oocysts,ineffective
cresylic acid,effectiveness for eradication of coccoid oocysts,Eimeria oocysts,ineffective
